For series [1], the system named is ergosterol biosynthesis in C. krusei. Description: Quantification of ergosterol level by LC-MS-MS. Format: cell-based. The following applies: Pichia kudriavzevii, mean ± SD, quadruplicate. The source says: Sterols are neutral lipids of eukaryotic cells, among which ergosterol is the main constituent of fungal membranes. Ergosterol has biological functions such as membrane fluidity, regulation, activity and distribution of integral membrane proteins, and control of the cell cycle. The critical role of sterols in maintenance of cell membranes make ergosterol and its biosynthetic pathway essential for fungal growth, and a primary target for antifungal drugs to treat fungal infections. From this point of view, we performed an LCMSMS (Shimadzu LCMS 8040, Kyoto, Japan) method for quantitative determination of ergosterol content of C. krusei as reported in our recent study. Compounds 3a–3d, displaying the best anticandidal activity and low cytotoxic effect, and reference agents ketoconazole and fluconazole were tested at concentrations of 0.78–3.12 µg/mL. Ergosterol standard (Product No.: 45480, Sigma-Aldrich, Darmstadt, Germany) was used for the quantification of ergostrerol in samples, which were treated with reference agents and Compounds 3a–3d. Ergosterol quantity of the negative control was considered as 100%. Quadruplicate analyses were performed for all concentrations and the obtained data were expressed as mean ± standard deviation (SD) (Table 2).
Extraction of total sterols from C. krusei was performed as recorded by Breivik and Owades. Quantification of ergosterol level in this extract was carried out in accordance with our recently described method.

Another series relates to C. albicans (ATCC 24433). The experiment in a line: Anticandidal activity, EUCAST EDef 7.1 broth dilution with resazurin. The format is cell-based. To be noted: Candida albicans, ATCC24433, RPMI pH 7, 24 h. Here is the method:
(§1) Synthesized compounds (3a–3o) were evaluated for anticandidal activity against C. albicans (ATCC 24433), C. krusei (ATCC 6258), C. parapsilosis (ATCC 22019), and C. glabrata (ATCC 90030). MIC50 values were determined via fluorometric measurements, using resazurin solution [24, 25]. Ketoconazole and fluconazole were used as a standard drug in the activity test.
(§2) Microbiological studies were performed according to the EUCAST definitive (EDef 7.1) method for C. albicans (ATCC 24433), C. krusei (ATCC 6258), C. parapsilosis (ATCC 22019), and C. glabrata (ATCC 90030). Fluconazole and ketoconazole were used as control drugs. Two MIC readings were carried out for each chemical agent. The yeasts were maintained in RPMI after overnight incubation at 37 °C. The inocula of test microorganisms was adjusted to match the turbidity of a MacFarland 0.5 standard tube as determined with a spectrophotometer, and the final inoculum size was 0.5–2.5 × 10^5 cfu/mL for the antifungal assay. Testing was carried out in RPMI at pH = 7, and the two-fold serial dilutions technique was applied. The last well on the microplates containing only inoculated broth was kept as a control, and the last well with no growth of microorganism was recorded to represent the MIC50 expressed in μg/mL. For the antifungal assays, the compounds were dissolved in DMSO. Further dilutions of the compounds and standard drugs in the test medium were prepared at the required quantities of 800, 400, 200, 100, 50, 25, 12.5, 6.25, 3.125, 1.5625, and 0.78 μg/mL concentrations RPMI. The completed plates were incubated for 24 h. At the end of the incubation, resazurin (20 µg/mL) was added into each well to control the growth in the wells. Completed plates were incubated for 2 h. MIC50 values were determined using a microplate reader at […].
On the technique in general: Dilution methods test growth across graded concentrations, often in twofold steps.

In another series the test system is C. krusei (ATCC 6258). The description is as above. The format is cell-based. The following applies: Pichia kudriavzevii, ATCC6258, RPMI pH 7, 24 h. Here is the method:
as §1, §2

In the next series the test system is C. glabrata (ATCC 90030). Described as above. Format: cell-based. The following applies: Nakaseomyces glabratus, ATCC90030, RPMI pH 7, 24 h. As to the method:
as §1, §2

Series [2] relates to C. parapsilosis (ATCC 22019). The series is described as above. The format is cell-based. The following applies: Lodderomyces parapsilosis, ATCC22019, RPMI pH 7, 24 h. Here is the method:
as §1, §2

In series [3] the test system is NIH/3T3 mouse embryonic fibroblast cell line. Description: MTT cytotoxicity test. The format is cell-based. The following applies: NIH3T3, cytotoxic activity, NIH/3T3 cell line. Here is the method:
The main cause of failure in all stages of the new drug development process is toxicity. Early identification of toxicities of drug candidates is very important in terms of drug development studies. […] Cytotoxicity of selected compounds (3a–3d), displaying strong anticandidal activity and good predicted pharmacokinetics, was determined against NIH/3T3 mouse embryonic fibroblast cell lines (ATCC CRL1658).
Cytotoxicity was tested using the NIH/3T3 mouse embryonic fibroblast cell line (ATCC® CRL-1658™, London, UK). NIH/3T3 cells were incubated according to the supplier’s recommendations. NIH/3T3 cells were seeded at 1 × 10^4 cells into each well of the 96-well plates. The MTT assay was performed as previously described. The compounds were tested between 800 and 0.78 µg/mL concentrations. Inhibition % was calculated for each concentration according to the formula below, and IC50 values were determined by plotting a dose–response curve of inhibition % versus compound concentrations tested.
% inhibition = 100 − (mean sample × 100/mean solvent).
(In general: Tetrazolium dyes change colour on reduction, which living cells bring about.)

From publication PMC6017838, “Synthesis and Anticandidal Activity of New Imidazole-Chalcones” (Molecules : A Journal of Synthetic Chemistry and Natural …, 2018) come the findings set out here.

Values after ≈ are worked out from the molar mass of the structure shown.

One may read the melting point as the temperature of the solid-liquid transition. Usually inhibition stands for how much of the control response was suppressed. A lower inhibition goes with a weak effect. By MIC50 is commonly meant the lowest concentration that inhibits either 50% of growth or 50% of the strains tested, depending on the study. Lower therefore signals higher susceptibility. For orientation: IC50 means the point on the concentration scale where inhibition reaches its midpoint. Lower therefore signals inhibition by little substance. Molecule `COc1ccc(Oc2ccc(C=CC(=O)c3ccc(-n4ccnc4)cc3)cc2)cc1` [Compound 3c, 1-(4-(1H-Imidazol-1-yl)phenyl)-3-(4-(4-methoxyphenoxy)phenyl)prop-2-en-1-one] returned a melting point of 168 to 170 °C. In series [1], 0.78 µg/mL produced 71.1 ± 4.9% inhibition, 1.56 µg/mL produced 78.2 ± 2.7% inhibition and the inhibition at 3.12 µg/mL stood at 84.3 ± 4.65%. For the same molecule, in the series with C. albicans (ATCC 24433), the MIC50 worked out at 1.56 µg/mL (≈ 3.93 µM). The MIC50 in the series on C. krusei (ATCC 6258) is 0.78 µg/mL (≈ 1.97 µM). In addition, the MIC50 in the series with C. glabrata (ATCC 90030) is 0.78 µg/mL (≈ 1.97 µM). In series [2], the MIC50 worked out at 0.78 µg/mL (≈ 1.97 µM). Besides, the half-inhibitory concentration (IC50) in series [3] came to 436 ± 1.03 µg/mL (≈ 1100 µM).
The molecule `COc1ccc(Sc2ccc(C=CC(=O)c3ccc(-n4ccnc4)cc3)cc2)cc1` [Compound 3d, 1-(4-(1H-Imidazol-1-yl)phenyl)-3-(4-((4-methoxyphenyl)thio)phenyl)prop-2-en-1-one] returned a melting point of 177 to 179 °C. In addition, in series [1], the inhibition at 0.78 µg/mL was determined as 52.5 ± 1.83%, 1.56 µg/mL produced 67.1 ± 2.7% inhibition and the inhibition at 3.12 µg/mL was 74.1 ± 2.21%. This molecule registered an MIC50 against C. albicans (ATCC 24433) of 1.56 µg/mL (≈ 3.78 µM). Further, the MIC50 in the series on C. krusei (ATCC 6258) came to 1.56 µg/mL (≈ 3.78 µM). The MIC50 in the series on C. glabrata (ATCC 90030) worked out at 0.78 µg/mL (≈ 1.89 µM). The MIC50 in series [2] was 3.12 µg/mL (≈ 7.58 µM). Moreover, in series [3], the 50% inhibitory concentration (IC50) was found to be 388 ± 20.2 µg/mL (≈ 940 µM).
